Source: patent US11946094B2, “Combination therapies and methods of use thereof” (Augusta University Research Institute, Inc., priority 2017, dated 2024)
Counter-ions that a name gives are not always drawn. Like-named read-outs stand apart in the source and are kept apart here.

Assays:
OVCAR-8 cells [1] = test: Drug-siRNA combination screen: 346-compound anticancer library at 100 nM, CCK-8 viability; conditions: for synergy / antagonism of drug with gene knockdowns, in words: drug 100 nM, panel of 18 siRNA knockdowns; for number of tested HDACi highly synergistic with the gene knockdown: 12 tested HDACi; for number of antagonistic/additive or highly antagonistic compounds with the gene knockdown: 346 compounds
OVCAR-8 cells [2] = test: Drug titration (GI50) with S100A11 siRNA knockdown versus sham control; assay type: cell-based; conditions: serial dilution of drug, three replicates
Experimental: Statistical analyses were performed using the R language and environment for statistical computing (R version 3.3.1; R Foundation for Statistical Computing) and Microsoft Excel. Student's T-test (two-tailed, unpaired) was used to calculate p-values for confirmation of drug effect. GI50 values were calculated using a four-parameter logistic function to obtain a classical “s” curve for drug titrations using SigmaPlot (Systat Software, San Jose, CA). Heatmaps were created using the R package “pheatmap”. Clustering was done with WPGMA hierarchical clustering. QIAGEN's Ingenuity Pathway Analysis (IPA®, QIAGEN Redwood City) was utilized for assessment of network and pathway contributions of top genes identified using the NCI-60 correlations.
An important measure of synergism is the dosage reduction of a therapeutic compound by another agent. Titration screening with several compounds was performed to compare growth curves with and without knockdown of S100A11 or KLHL5. […] KLHL5 also was synergistic with other cell cycle inhibitors and PI3K-AKT-mTOR inhibitors. Titration curves and calculation of GI50 were performed for twenty-four compounds.

[3] = OVCAR-8, drug 100 nM plus siRNA knockdown of each of 18 genes, distance VAB−VA×VB in SD, single gene contributes at most +5 / −5, negative = synergy, positive = antagonism

Compound	Score (sum of observed SD values for 18 genes) (OVCAR-8 cells [1]; [3]) [SD]	other results
O=C(/C=C/c1cccc(S(=O)(=O)Nc2ccccc2)c1)NO [Belinostat]	−20.81	synergy / antagonism of drug with gene knockdowns, in words (OVCAR-8 cells [1]; OVCAR-8): mostly synergistic; dose reduction of GI50 value by S100A11 siRNA versus sham control (OVCAR-8 cells [2]): 5.56 fold
O=C(O)c1ccc2c(c1)nc(Nc1cccc(Cl)c1)c1ccncc12 [Silmitasertib]	−4.51	–
CCC(C)(C)C(=O)O[C@H]1C[C@@H](C)C=C2C=C[C@H](C)[C@H](CC[C@@H]3C[C@@H](O)CC(=O)O3)[C@H]21 [Simvastatin]	−20.34	–
CC(NC(=O)c1ccccc1/N=C/c1c(O)ccc2ccccc12)c1ccccc1 (stereo not shown) [Sirtinol]	−2.18	–
CCCC(=O)[O-].[Na+] [Sodium butyrate]	–	Score (sum of observed SD values for 18 genes) (OVCAR-8 cells [1]): −16.25 SD
CCCC(CCC)C(=O)[O-].[Na+] [Sodium valproate]	−17.88	–
CN1CCN(c2nc(C3=C(c4c[nH]c5ccccc45)C(=O)NC3=O)c3ccccc3n2)CC1 [Sotrastaurin]	−16.11	–
COc1cc(N2CCC(N3CCN(C)CC3)CC2)ccc1Nc1ncc(Cl)c(Nc2ccccc2S(=O)(=O)C(C)C)n1 [TAE684]	−35.61	–
Cn1c(=O)c(F)c(Nc2ccc(I)cc2F)c2c(=O)n(C[C@@H](O)CO)cnc21 [TAK-733]	−40.08	–
NC(=O)Nc1sc(-c2ccc(F)cc2)cc1C(N)=O [TPCA-1]	4.7	–
CC(C)c1ccccc1Cc1cc(C(=O)Nc2ccc(S(=O)(=O)c3ccccc3C(C)(C)C)cc2)c(O)c(O)c1O [TW-37]	−36.72	–
COc1cc2c(N3CCN(C(=O)Nc4ccc(OC(C)C)cc4)CC3)ncnc2cc1OCCCN1CCCCC1 [Tandutinib]	−14.99	–
CNC(=O)c1cc(COc2nnc(Nc3ccc(Cl)cc3)c3ccoc23)ccn1 [Telatinib]	−5.24	–
CO[C@H]1C[C@@H]2CC[C@@H](C)[C@@](O)(O2)C(=O)C(=O)N2CCCC[C@H]2C(=O)O[C@H]([C@H](C)C[C@@H]2CC[C@@H](OC(=O)C(C)(CO)CO)[C@H](OC)C2)CC(=O)[C@H](C)/C=C(\C)[C@@H](O)[C@@H](OC)C(=O)[C@H](C)C[C@H](C)/C=C/C=C/C=C/1C [Temsirolimus]	-56.85	–
COc1cc2nccc(Oc3ccc(NC(=O)Nc4cc(C)on4)c(Cl)c3)c2cc1OC [Tivozanib]	−16.34	–
C[C@@H]1CCN(C(=O)CC#N)C[C@@H]1N(C)c1ncnc2[nH]ccc12 [Tofacitinib]	−13.15	–
CN(C)CCOc1ccc(/C(=C(/CCCl)c2ccccc2)c2ccccc2)cc1 [Toremifene Citrate]	−22.88	–
CCC(=O)N1CCN(c2ccc(-n3c(=O)ccc4cnc5ccc(-c6cnc7ccccc7c6)cc5c43)cc2C(F)(F)F)CC1 [Torin 1]	−32.55	–
Nc1ccc(-c2ccc3ncc4ccc(=O)n(-c5cccc(C(F)(F)F)c5)c4c3c2)cn1 [Torin 2]	−37.17	–
CC(C)C[C@@H](C(=O)N[C@H](C(=O)OC1CCCC1)c1ccccc1)[C@H](O)C(=O)NO [Tosedostat]	5.66	–
Cc1cc(Nc2cc(N3CCN(C)CC3)nc(Sc3ccc(NC(=O)C4CC4)cc3)n2)[nH]n1 [Tozasertib]	−4.08	–
CC(=O)Nc1cccc(-n2c(=O)n(C3CC3)c(=O)c3c(Nc4ccc(I)cc4F)n(C)c(=O)c(C)c32)c1 [Trametinib]	−27.77	–
C[C@]12C=CC(=O)C=C1CC[C@H]1[C@@H]3C[C@@H](O)[C@](O)(C(=O)CO)[C@@]3(C)C[C@H](O)[C@@]12F [Triamcinolone]	−26.66	–
CC(/C=C/C(=O)NO)=C\[C@@H](C)C(=O)c1ccc(N(C)C)cc1 [Trichostatin A]	−38.93	synergy / antagonism of drug with gene knockdowns, in words (OVCAR-8 cells [1]; OVCAR-8): mostly synergistic
CC(C)[C@]12O[C@H]1[C@@H]1O[C@]13[C@]1(O[C@H]1C[C@H]1C4=C(CC[C@@]13C)C(=O)OC4)[C@@H]2O [Triptolide]	−15.95	–
CC(C)C[C@H](NC(=O)[C@@H](O)[C@H](N)Cc1ccccc1)C(=O)O [Ubinimex]	−17.36	–

Compound	Score (sum of observed SD values for 18 genes) (OVCAR-8 cells [1]; [3]) [SD]	other results
Cc1ccc2c(=O)c3cccc(CC(=O)O)c3oc2c1C [Vadimezan]	−28.75	–
Cl.Cl.Clc1ccc(Nc2nnc(Cc3ccncc3)c3ccccc23)cc1 [Vatalanib 2HCI]	−3.51	–
CCOC(=O)C1=C[C@]2(CC)CCCN3CCc4c(n1c1ccccc41)[C@@H]32 [Vinpocetine]	−1.42	–
CC[C@@H]1C(=O)N(C)c2cnc(Nc3ccc(C(=O)N[C@H]4CC[C@H](N5CCN(CC6CC6)CC5)CC4)cc3OC)nc2N1C(C)C [Volasertib]	10.79	–
CC(C)OC(=O)C1=CN(C(=O)c2ccc(F)c(F)c2)CC(C)(C)c2c1[nH]c1ccccc21 [WAY-362450]	−29.97	–
CCC[C@H](NC(=O)/C(C#N)=C/c1cccc(Br)n1)c1ccccc1 [WP1130]	3.15	–
C=CC(=O)Nc1cccc(Oc2nc(Nc3ccc(N4CCN(C)CC4)cc3OC)ncc2Cl)c1 [WZ4002]	−41.61	–
Oc1nc(-c2ccc(C(F)(F)F)cc2)nc2c1CSCC2 [XAV-939]	−29.25	–
COc1ccc(Cl)c(Nc2nc3ccccc3nc2NS(=O)(=O)c2cccc(NC(=O)C(C)(C)N)c2)c1 [XL147]	−30.94	–
CCn1c(=O)c(-c2cc[nH]n2)cc2c(C)nc(N)nc21 [XL765]	−10.06	–
C[C@@H](N)[C@H]1CC[C@H](C(=O)Nc2ccncc2)CC1.Cl.Cl [Y-27632 2HCI]	−28.91	–
COCCn1c2c([n+](Cc3cnccn3)c1C)C(=O)c1ccccc1C2=O [YM155]	−1.58	–
Nc1ccc(C(=O)Nc2cccc(-c3nc(N4CCOCC4)c4oc5ncccc5c4n3)c2)cn1 [YM201636]	−32.89	–
FC(F)c1nc2ccccc2n1-c1nc(N2CCOCC2)nc(N2CCOCC2)n1 [ZSTK474]	-52.94	synergy / antagonism of drug with gene knockdowns, in words (OVCAR-8 cells [1]; OVCAR-8): synergy to the vast majority of genes
COc1nc(C)cnc1NS(=O)(=O)c1cccnc1-c1ccc(-c2nnco2)cc1 [Zibotentan]	10.07	–
CC(c1cc2ccccc2s1)N(O)C(N)=O (stereo not shown) [Zileuton]	−19.64	–
AXL: siRNA knocking down AXL; sense CAGCGAGAUUUAUGACUAUtt (SEQ ID NO 15) (sense CAGCGAGAUUUAUGACUAUNN; antisense AUAGUCAUAAAUCUCGCUGNN; listed as RNA, chemistry not given here)	–	number of tested HDACi highly synergistic with the gene knockdown (OVCAR-8 cells [1]; OVCAR-8): at least six; number of antagonistic/additive or highly antagonistic compounds with the gene knockdown (OVCAR-8 cells [1]; OVCAR-8): Twelve or fewer
AZ 3146	−22.56	–
KLHL5: siRNA knocking down KLHL5; sense CAGGCCGCCUUGAAUUAAAtt (SEQ ID NO 23) (sense CAGGCCGCCUUGAAUUAAANN; antisense UUUAAUUCAAGGCGGCCUGNN; listed as RNA, chemistry not given here)	–	number of tested HDACi highly synergistic with the gene knockdown (OVCAR-8 cells [1]; OVCAR-8): at least six; number of antagonistic/additive or highly antagonistic compounds with the gene knockdown (OVCAR-8 cells [1]; OVCAR-8): Twelve or fewer; number of Aurora Kinase inhibitors with significant synergy with the gene knockdown (OVCAR-8 cells [1]; OVCAR-8, eleven tested inhibitors): eight of the eleven
Maraviroc	–	Score (sum of observed SD values for 18 genes) (OVCAR-8 cells [1]): 0.11 SD
Medroxyprogesterone	−35.82	–
S100A11: siRNA knocking down S100A11; sense GAACUAGCUGCCUUCACAAtt (SEQ ID NO 27) (sense GAACUAGCUGCCUUCACAANN; antisense UUGUGAAGGCAGCUAGUUCNN; chemistry not given here)	–	number of tested HDACi highly synergistic with the gene knockdown (OVCAR-8 cells [1]; OVCAR-8): 10 of 12
SLC7A11: siRNA knocking down SLC7A11; sense GGCUGAUUUAUCUUCGAUAtt (SEQ ID NO 31) (sense GGCUGAUUUAUCUUCGAUANN; antisense UAUCGAAGAUAAAUCAGCCNN; listed as RNA, chemistry not given here)	–	number of tested HDACi highly synergistic with the gene knockdown (OVCAR-8 cells [1]; OVCAR-8): at least six; number of antagonistic/additive or highly antagonistic compounds with the gene knockdown (OVCAR-8 cells [1]; OVCAR-8): Twelve or fewer
SNS-314 Mesylate	−1.05	–
USP40: siRNA knocking down USP40; sense GGAAACUAGCUGUUAUACAtt (SEQ ID NO 35) (sense GGAAACUAGCUGUUAUACANN; antisense UGUAUAACAGCUAGUUUCCNN; listed as RNA, chemistry not given here)	–	number of tested HDACi highly synergistic with the gene knockdown (OVCAR-8 cells [1]; OVCAR-8): at least six; number of antagonistic/additive or highly antagonistic compounds with the gene knockdown (OVCAR-8 cells [1]; OVCAR-8): Twelve or fewer
WYE-354	−13.86	–
